Laboratory results as given in patent US11161824B2, “Heterocyclic lipoxin analogs and uses thereof” (University College Dublin, National University of Ireland, …, priority 2016, dated 2021).

What was measured:
NFkB [1] = experiment: LPS-induced NFkB-driven luciferase activity in THP-1 LUCIA monocytes; assay type: cell-based; details: for reduction of LPS-induced NFkB luciferase activity: 30 min pre-treatment, then 24 h with 50 ng/ml LPS, relative to LPS
Protocol: 1×10^5 THP-1 LUCIA monocytes were pre-treated for 30 min with native LXA4 1 (FIG. 1A), imidazole analogues 9 [(1R)-epimer (FIG. 1B) and (1S)-epimer (FIG. 1C)], vehicle or appropriate controls, at increasing doses ranging from 10^−12 M up to 10^−6 M. 10^8 HKLM was used as positive control for NFkB activation. After 24 h from stimulation with 50 ng/ml of LPS, supernatants were collected and NFkB-driven luciferase was measured. (d) Data are expressed as % Relative Luminescence Unit relative to LPS alone ±SEM (n=3), *=p<0.05, **=p<0.01, ***=p<0.001. Graphs display the statistical analysis of the tested compound vs LPS.
(§1) The experiments were based around a model which utilised 1×10^5/ml THP-1 monocytes stably expressing NFkB luciferase reporter gene (LUCIA).
(§2) Anti-inflammatory activity was assessed by testing 10 analogues (6 quinoxalines & 4 isoquinolines) in presence & absence of lipopolysaccharide (LPS). For each analogue, a dose-response from 10^−12 M up to 10^−6 M was performed. The vehicle control corresponded to 0.1% Ethanol. NFkB activator, Heat-Killed Listeria Monocytogenes (HKLM) (10^7 cells/ml), were used as positive control for luciferase induction. 10^−6 M Dexamethasone (Dex) was used as positive control for luciferase inhibition. […] Benzo-lipoxin A4 (BLX) was used as positive control for LXA4 analogues.
A 2-tailed, assuming unequal variance T-test analysis was performed on three independent experiments for each assay. P-values were considered significant when p<0.05. If p<0.05, then * or $; if p<0.01, then ** or $$ or ##; if p<0.001, then *** or $$$ or ###.
Cells were seeded in 96-well plates and pre-treated with increasing doses of LXA4, analogues or controls for 30 min, followed by 24 h of co-incubation with 50 ng/ml LPS. […] (*=statistical analysis vs LPS; $=statistical analysis vs LXA4)

NFkB [2] = experiment: NFkB-driven luciferase activity in resting conditions (absence of LPS) in THP-1 LUCIA monocytes; assay type: cell-based; details: 10^-12 M to 10^-6 M, 24 h
Protocol: 1×10^5 THP-1 LUCIA monocytes were treated for 30 min with native (a) LXA4 1, its stable imidazole-lipoxin analogues (1R)-9 and (1S)-9, vehicle or appropriate controls, at increasing doses ranging from 10^−12 M up to 10^−6 M. After 24 h, supernatants were collected and NFkB-driven luciferase was measured. Data are expressed as % Relative Luminescence Unit relative to LPS alone ±SEM (n=3).
as §1, §2

Th1 cytokine release = experiment: LPS-induced Th1 cytokine release from THP-1 LUCIA monocytes; assay type: cell-based; details: 10^-11, 10^-9 or 10^-7 M; 50 ng/ml LPS 24 h; IL1β, IL6, IL12p70, IFNγ, TNF-α as per figure
Protocol: FIG. 2A-2E are graphs showing imidazole-lipoxin analogues (1R)-9 and (1S)-9 reduce LPS-induced Th1 cytokine release. 1×10^5 THP-1 LUCIA monocytes were pre-treated for 30 min with […], 10^−9 M or 10^−7 M of LXA4 1 and imidazole-lipoxin analogues (1R)-9 and (1S)-9, vehicle or appropriate controls. After 24 h from stimulation with 50 ng/ml of LPS, supernatants were collected and […] (FIG. 2A), IL6 (FIG. 2B), IL12p70 (FIG. 2C), IFNγ (FIG. 2D), and TNF-α (FIG. 2E) levels were measured. Data are expressed as % cytokine secretion relative to LPS alone ±SEM (n=3), *=p<0.05, **=p<0.01, ***=p<0.001.
FIG. 6A-6C are graphs showing that quinoxaline-lipoxin analogue (1R)-CT-4-43 inhibits LPS-induced Th1 cytokine release. 1×10^5 THP-1 LUCIA monocytes were pre-treated for 30 min with […], 10^−9 M or 10^−7 M of LXA4 and quinoxaline-lipoxin analogue (1R)-CT-4-43, vehicle or appropriate controls. After 24 h from stimulation with 50 ng/ml of LPS, supernatants were collected and IL13 (FIG. 6A), IL6 (FIG. 6B), and IFNγ (FIG. 6C) levels were measured. Data are expressed as % cytokine secretion relative to LPS alone ±SEM (n=3), *=p<0.05, **=p<0.01, ***=p<0.001.
FIG. 9A-9C are graphs showing that the isoquinoline-lipoxin analogue RB3 inhibit LPS-induced Th1 cytokine release. 1×10^5 THP-1 LUCIA monocytes were pre-treated for 30 min with 10^−11 M, 10^−9 M or 10^−7 M of LXA4 and isoquinoline-lipoxin analogue (1R)-RB3, vehicle or appropriate controls. After 24 h from stimulation with 50 ng/ml of LPS, supernatants were collected and IL1β(FIG. 9A), IL6 (FIG. 9B), and IL12p70 (FIG. 9C) levels were measured. Data are expressed as % cytokine secretion relative to LPS alone ±SEM (n=3), *=p<0.05, **=p<0.01, ***=p<0.001.

[3] = system: carrageenan-induced paw swelling; experiment: Murine carrageenan-induced paw swelling; assay type: in vivo, C57Bl/6 mice; details: 45 ng/mouse i.p. 30 mins before intrapaw 1% carrageenan; 4-72 h
Protocol: CT4-43 attenuates carageenan-induced paw swelling—Mice [male C57Bl/6] were administered vehicle [0.01% EtOH] or CT4-4 [45 ng/mouse i.p] 30 mins before intrapaw injection of 1% carageenan. Paw swelling was monitored over time [4-72 h] using an external lever gauge [Kroeplin]. Data are presented as mean+/−SEM, n=3 mice/treatment group.

effect on LPS-induced NFkB-driven luciferase activity (in words) (NFkB [1]; doses 10^-12 M to 10^-6 M, 50 ng/ml LPS, 24 h): attenuating
potency in reducing LPS-induced NFkB activity, comparison in words (NFkB [1]; versus LXA4 or other analogues): significantly more potent than LXA4
NFkB-driven luciferase activity in resting conditions (in words) (NFkB [2]): does not elicit
Structure (SMILES): CCCCC[C@@H](O)c1nc2ccccc2nc1/C=C/[C@@H](O)[C@@H](O)CCCC(=O)OC [(1R)-CT4-43, Methyl (5S,6R,E)-5,6-dihydroxy-8-(3-((R)-1-hydroxyhexyl)quinoxalin-2-yl)oct-7-enoate]
reduction of LPS-induced NFkB luciferase activity (NFkB [1]; 1 nM): 38.2±8.2%
reduction of LPS-induced NFkB luciferase activity (NFkB [1]; 10 nM): 34.8±4.2%
effect on LPS-induced Th1 cytokine release (in words) (Th1 cytokine release): inhibits
effect on carrageenan-induced paw swelling (in words) [3]: attenuates
